{"source": "ChEMBL document CHEMBL1127879", "about": "“A conformationally restrained series of AT1-selective angiotensin II antagonists” (Bioorg Med Chem Lett, 1994)", "biological_target": "T1, Angiotensin II receptor (AT-1) type-1 (Rattus norvegicus, UniProt P29089+P25095)", "T1 sequence (P29089 whole entry)": "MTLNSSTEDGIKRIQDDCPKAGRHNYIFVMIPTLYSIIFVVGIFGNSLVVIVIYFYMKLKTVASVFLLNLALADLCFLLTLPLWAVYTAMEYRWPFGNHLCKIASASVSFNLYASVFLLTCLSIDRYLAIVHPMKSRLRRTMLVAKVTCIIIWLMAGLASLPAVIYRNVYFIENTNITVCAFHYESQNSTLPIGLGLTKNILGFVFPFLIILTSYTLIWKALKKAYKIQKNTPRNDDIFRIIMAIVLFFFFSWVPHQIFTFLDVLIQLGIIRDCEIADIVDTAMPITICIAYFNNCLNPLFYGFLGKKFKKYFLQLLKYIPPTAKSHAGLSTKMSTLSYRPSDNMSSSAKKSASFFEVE", "T1 sequence (P25095 whole entry)": "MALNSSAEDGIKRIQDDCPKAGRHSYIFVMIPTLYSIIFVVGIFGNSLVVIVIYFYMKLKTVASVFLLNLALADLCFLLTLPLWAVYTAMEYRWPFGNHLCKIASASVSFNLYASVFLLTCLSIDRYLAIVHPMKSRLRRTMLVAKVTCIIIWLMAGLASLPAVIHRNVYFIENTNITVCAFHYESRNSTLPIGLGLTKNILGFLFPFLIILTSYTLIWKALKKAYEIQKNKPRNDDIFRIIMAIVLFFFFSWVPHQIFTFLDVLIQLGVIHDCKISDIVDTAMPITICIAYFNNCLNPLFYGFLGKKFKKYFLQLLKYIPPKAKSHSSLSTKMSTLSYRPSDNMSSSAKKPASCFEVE", "assay": "Binding affinity against Angiotensin II receptor, type 1 using [125I]Sar-Ile8-AII in rat liver membranes", "assay_type": "cell membranes, Membrane"}
{"smiles": "Cc1cc(C)c2nc(C3CC3)n(C3CCc4cc(-c5ccccc5-c5nn[nH]n5)ccc43)c2n1", "note": "(stereo not drawn)", "values": [{"measurement": "IC50", "value": 0.2, "unit": "nM"}]}
{"smiles": "CCCCc1nc2c(C)cc(C)nc2n1C1CCc2cc(-c3ccccc3-c3nn[nH]n3)ccc21", "note": "(stereo not drawn)", "values": [{"measurement": "IC50", "value": 30, "unit": "nM"}]}
{"smiles": "CCc1nc2c(C)cc(C)nc2n1C1CCCc2cc(-c3ccccc3-c3nn[nH]n3)ccc21", "note": "(stereo not drawn)", "values": [{"measurement": "IC50", "value": 120, "unit": "nM"}]}
{"smiles": "CCCc1nc2c(C)cc(C)nc2n1C1CCc2cc(-c3ccccc3-c3nn[nH]n3)ccc21", "note": "(stereo not drawn)", "values": [{"measurement": "IC50", "value": 14, "unit": "nM"}]}
{"smiles": "Cc1cc(C)c2nc(C(C)C)n(C3CCc4cc(-c5ccccc5-c5nn[nH]n5)ccc43)c2n1", "note": "(stereo not drawn)", "values": [{"measurement": "IC50", "value": 70, "unit": "nM"}]}
{"smiles": "CCc1nc2c(C)cc(C)nc2n1C1CCc2cc(-c3ccccc3-c3nn[nH]n3)ccc21", "note": "(stereo not drawn)", "values": [{"measurement": "IC50", "value": 11, "unit": "nM"}]}
{"smiles": "CCc1nc2c(C)cc(C)nc2n1C1CCCCc2cc(-c3ccccc3-c3nn[nH]n3)ccc21", "note": "(stereo not drawn)", "values": [{"measurement": "IC50", "value": 220, "unit": "nM"}]}
{"smiles": "CCc1nc2c(C)ccnc2n1C1CCc2cc(-c3ccccc3-c3nn[nH]n3)ccc21", "note": "(stereo not drawn)", "values": [{"measurement": "IC50", "value": 120, "unit": "nM"}]}
